Measurements published in a melting point compilation (Tetko et al.; mined from patent text by program, amines drawn as free bases though some values may be those of a salt).

Row | SMILES | melting point
1 | CCC1CCCCN1C(=O)C=Cc1c(-c2ccncc2)nn2ccccc12 (centres undefined) | 150 to 153 °C
2 | CC(C)(C)c1coc2c(-c3ccc(F)cc3)c(-c3ccc(S(C)(=O)=O)cc3)nn12 | 181 to 182 °C
3 | O=c1ccn(C2OC(CO)C(O)C2Cl)c(=O)[nH]1 (centres undefined) | 206 to 207 °C
4 | COC(=O)COc1c(Br)cc(-c2c3ccccc3c(Br)c3sc4ccccc4c23)cc1Br | 183 to 184 °C
5 | O=C(O)c1ccc2c(c1)Sc1ccccc1NC2=O | 362 to 364 °C
6 | N#Cc1ccc(Cn2cncn2)cc1-c1ccc(O)cc1 | 211 to 213 °C
7 | CN(Cc1cc2c3c(c1)c(=O)c(C(=O)NCc1ccc(Cl)cc1)cn3CC(=O)N2C)C[C@@H](O)c1ccsc1 | 137 to 139 °C
8 | CCOc1cc2nc(NC)nc(-c3cccc(-c4cnc5ccccc5c4)c3)c2cc1OCC | 157 to 159 °C
9 | NS(=O)(=O)c1ccc(-c2cnn(CC(F)(F)F)c(=O)c2Oc2ccc(F)cc2)cc1 | 150 to 152 °C
10 | CN(CC=C(F)C(F)(F)C(F)(F)F)CCCCCC1Cc2cc(O)ccc2C2C(F)CC3(C)C(O)CCC3C12 (centres undefined) | 122 °C
11 | CC(=O)Nc1ccc(S(=O)c2ccc(Cl)cc2)cc1 (centres undefined) | 160 to 162 °C
12 | CC(C)CCNC(=O)CNC(=O)C(Br)Cc1ccccc1 (centres undefined) | 110 °C
13 | COC1=C(OC)C(=O)C2=C(CC(CCCCCCCCOc3ccc(Cl)cc3)C2)C1=O | 64 to 66 °C
14 | CS(=O)c1ccc(-c2cnn3c(O)ncnc23)cc1 (centres undefined) | 285 to 286 °C
15 | CCCOc1ccc(S(=O)(=O)N2CCN(Cc3ccccc3)CC2)cc1-c1nc2cc(N)c([N+](=O)[O-])cc2c(=O)[nH]1 | 198 to 200 °C
16 | Cc1noc(NS(=O)(=O)c2ccccc2-c2ccc(-c3ncco3)cc2CN(C)C(=O)c2ccc(Cl)cc2)c1C | 122 to 132 °C
17 | CC(=O)NCc1ccc(CN2CCN(c3cnccn3)CC2)cc1 | 118 to 119 °C
18 | Cn1c(=O)c(C#N)c(N2CCN(C(=O)c3cccs3)CC2)c2cc(Cl)ccc21 | 262 °C
19 | NCCCC(=O)N1CCC(c2[nH]nc3c2C(=O)c2c(NC(=O)NN4CCOCC4)cccc2-3)CC1 | 172 to 174 °C
20 | CCOC(=O)C(NC(=O)OC(C)(C)C)c1csc(NC(=O)OCC(Cl)(Cl)Cl)n1 (centres undefined) | 94 to 95 °C
21 | Cc1ccc(S(=O)(=O)NCCCCSc2ccc(NS(C)(=O)=O)cc2)cc1 | 95 to 96 °C
22 | COC(=O)C1=C(C)OC(C)=C(C(=O)OC)C1c1ccccc1 | 62.5 °C
23 | CCCCc1nc(Cl)c(C=O)n1Cc1ccc(-c2ccccc2-c2n[nH]c(=O)o2)cc1 | 178 to 179 °C
24 | Nc1nc(NCCN2CCC(NC3(Cc4ccc(F)cc4)Nc4ccccc4N3)CC2)ccc1[N+](=O)[O-] | 206 °C
25 | O=C(NCCO)c1cccc(-c2cccc3nn(Cc4ccc(F)cc4)cc23)c1 | 137 to 138 °C

Row | SMILES | melting point
26 | CC(C)(C(=O)NC(Nc1c(Nc2cccnc2)c(=O)c1=O)C(C)(C)Cc1ccccc1)c1ccccc1 (centres undefined) | 228 to 231 °C
27 | COc1cc2c(O)c(S(=O)(=O)N(C)C)cnc2cc1Cl | 316 to 318 °C
28 | O=C(c1cccnc1)N1N=CCC1c1ccccc1 (centres undefined) | 100 to 102 °C
29 | COc1ccccc1C(=O)NCCc1ccc(-c2ccc(O)cc2)cc1 | 118 °C
30 | Cc1c(C)c2c(c(C)c1OCc1ccccc1)CCC(C)(CC(=O)O)O2 (centres undefined) | 91 to 96 °C
31 | O=c1oc2ccccc2n1-c1ccccc1[N+](=O)[O-] | 153 to 155 °C
32 | O=C1CCC2(F)C3Cc4ccc(O)c5c4C2(CCN3CC2CC2)C1O5 (centres undefined) | 188 to 190 °C
33 | CCCCSc1ccccc1C(=O)O | 96 to 101 °C
34 | CCN1CC(C)=CC2=C1N1CN(OC)C=C1N=N2 | 202 to 203 °C
35 | Cc1cc(C)cc(N(CCO)Cc2ccc3nc(NCCCN4CCOCC4)n(Cc4nc(C)ccc4O)c3c2)c1 | 180 °C
36 | O=C(Cc1ccsc1)N1C(=O)OC[C@@H]1Cc1ccccc1 | 80 to 81 °C
37 | c1ccc(-c2nccn3cnnc23)cc1 | 238 to 239 °C
38 | CCOC(=O)Nc1c(F)cc(Cl)c2c1OC(C)(C)C2 | 114 to 115 °C
39 | CCOP(=O)(/C=C/c1cn(-c2ccccc2)nc1OCc1ccc(OCc2nc(-c3ccc(CC(=O)O)cc3)oc2C)c(OC)c1)OCC | 119 to 120 °C
40 | Cc1noc2cc3c(cc12)C1(CO3)C(=O)N(Cc2ccccc2C(F)(F)F)c2ccccc21 (centres undefined) | 192 to 194 °C
41 | CCC(Br)C(=O)c1ccc(OC)c(OC(F)F)c1 (centres undefined) | 105 °C
42 | COC(=O)C(CC(C)C)NCC(=O)n1c(=O)cc(-c2ccccc2)c2cc(C(c3ccc(Cl)cc3)n3ccnc3)ccc21 (centres undefined) | 118 °C
43 | Cc1c(-c2ccccc2)sc2c(Cl)c(Cl)c(O)cc12 | 146 to 147 °C
44 | O=C(Nc1ccccc1)C(CS)Cc1ccccc1 (centres undefined) | 70 °C
45 | CCOC(=NC(=O)c1ccncc1)N1Cc2ccccc2-c2ccccc2C1 | 120 to 122 °C
46 | COc1ccc(Cl)c(S(=O)(=O)NC(=O)c2cn3cc(C(F)(F)F)cc(Br)c3n2)c1 | 191 to 192 °C
47 | CCOC(=O)c1nn(-c2ccc(Cl)cc2Cl)c(-c2cccs2)c1C | 121 to 122 °C
48 | O=C(O)c1ccc2nc3c(c(=O)n2c1)CCC3=Cc1cccc(O)c1 | > 320 °C
49 | CCOP(C)(=O)CC(CC(C)C)NS(=O)(=O)c1ccc(C)cc1 (centres undefined) | 96 to 105 °C
50 | O=C(O)C1Cc2ccc3ccccc3c2C1 (single isomer, unassigned; (-)) | 139 to 141 °C

Row | SMILES | melting point
51 | COc1ccc(C(CS(C)(=O)=O)N2C(=O)c3cccc(NC(C)=O)c3C2=O)cc1OCC1CC1 (centres undefined) | 102 to 104 °C
52 | NC1=NN(c2ccc(Cl)cn2)C(c2ccccc2)C1 (centres undefined) | 142 to 147 °C
53 | CC(=N)Nc1nc(-c2ccccn2)nc2ccccc12 | 172 to 173 °C
54 | CCCCc1ncc(CC(NC(=O)CCc2ccccc2)C(=O)O)n1Cc1ccccc1Cl (centres undefined) | 194 to 196 °C
55 | CCC(O)(c1ccc(Cl)cc1)c1ccc(OCCCN2CCCCC2)cc1 (centres undefined) | 104 to 105 °C
56 | Cc1onc(-c2ccc(-c3cscn3)cc2)c1-c1ccc(S(N)(=O)=O)c(F)c1 | 216 °C
57 | COC(=O)C1Oc2ccc3c(-c4ccccc4)noc3c2O1 (centres undefined) | 78 to 80 °C
58 | CCCc1csc2ncc(C(=O)OC)n12 | 149 to 150 °C
59 | CC(C)C1NC(=O)CN1C(=O)CNC(=O)CN1CCCC1=O (centres undefined) | 104 to 106 °C
60 | CCCc1c(C#N)c(C(F)F)nc(C(F)(F)F)c1C(=O)OCC | 40 to 41 °C
61 | Nc1nc2ccccc2c2c1ncn2CCOCC#Cc1ccc(Oc2ccccc2)cc1 | 146 to 148 °C
62 | CN(CCOc1ccc(C(N)=O)cc1)CCc1ccc(N)cc1 | 110 to 112 °C
63 | Cc1nc(N2CCCC(Cc3cc(F)ccc3F)C2=O)sc1C(=O)NCc1ccccc1 (centres undefined) | 144 to 145 °C
64 | CC(=CCc1c(O)c(C)c2c(c1OS(=O)(=O)c1ccc(C)cc1)C(=O)OC2)CCC(=O)O | 148 to 149 °C
65 | CCCCn1cc(CCN(C)C)c2c(OCc3ccccc3)cc(F)cc21 | 86 to 89 °C
66 | Oc1ccc(Cl)c2c1CCCC2 | 58 to 59 °C
67 | CC(=O)Nc1ncc(SC#N)s1 | 212 °C
68 | CCc1nc2c(o1)C(=O)C=CC2=O | 99 °C
69 | O=C1CCC(N2Cc3c(OCc4ccc5ncc(CN6CCOCC6)n5c4)cccc3C2=O)C(=O)N1 (centres undefined) | 170 to 172 °C
70 | Oc1cccc2[nH]c(-c3ccccc3)cc12 | 120 to 123 °C
71 | Cc1cc(-c2cccc(C(F)(F)F)c2)c2nc(OC(F)F)cnc2c1 | 103 to 104 °C
72 | Cc1[nH]c(=O)[nH]c(=O)c1[N+](=O)[O-] | 281 °C
73 | O=c1[nH]c2cc([N+](=O)[O-])ccc2c(O)c1-c1ccccc1 | > 330 °C
74 | CCC(C(=O)O)N(C(=O)c1cn(-c2ccc(F)cc2F)nc1C)c1ccc(OCC(C)(C)C)c(C#N)c1 (centres undefined) | 110 °C
75 | CC(C)(C)OC(=O)C[C@@H]1C[C@@H](COc2ccc(-c3ccc(C#N)c(F)c3)cc2)NC1=O | 142 to 144 °C

Row | SMILES | melting point
76 | COC(=O)Cn1c(=O)c2ccccc2n(CCCCl)c1=O | 144 to 146 °C
77 | COc1ccccc1-c1c(NC(=O)OCc2ccccc2)oc(=O)c2ccccc12 | 144 to 146 °C
78 | Clc1ccc(-c2[nH]nc(C3=CCN4CCC[C@H]4C3)c2-c2ccncc2)cc1 | 211 to 212 °C
79 | NC(=O)CCC(=NNC(N)=S)c1ccccc1 | 186 to 188 °C
80 | CC(O)=C(C#N)C(=O)Nc1ccc([N+](=O)[O-])c(C)c1 | 231 to 233 °C
81 | COc1cccc2c1C(O)c1ccccc1C21CCN(C)CC1 (centres undefined) | 149 to 151 °C
82 | O=C(O)/C=C/c1ccc(C(c2cc(F)ccc2F)S(=O)(=O)c2ccc(Cl)cc2)nc1 (centres undefined) | 236 to 238 °C
83 | CC(C)c1ccc(NC(=O)C2CCCc3ccccc32)cn1 (centres undefined) | 156 °C
84 | Cc1cccc2[nH]c(-c3ccccc3[N+](=O)[O-])nc12 | 167 to 168 °C
85 | CSc1nc2sccc2c(=O)[nH]1 | 232 to 235 °C
86 | Cc1csc(-c2cc(C)cn2-c2ccc(S(N)(=O)=O)cc2)c1 | 172 to 173 °C
87 | CCOC(=O)Nc1ccc(C2CCN(C(=O)OCC)CC2)cc1 | 105 to 107 °C
88 | Cc1ccc(NC(=O)c2snnc2C2CC2)cc1Cl | 150 to 153 °C
89 | Cn1nnnc1Cn1nnnc1Cl | 138 to 140 °C
90 | Cc1ccc2sc(S(=O)(=O)c3ccc(=O)[nH]n3)cc2c1 | 240 to 242 °C
91 | COC(=O)C1=C(C)NC(C)=C(P2(=O)OCCCO2)C1c1ccccc1[N+](=O)[O-] (centres undefined) | 249 to 251 °C
92 | O=C(CS(=O)(=O)c1ncc(Br)cn1)c1ccccc1 | 95 °C
93 | CS(=O)(=O)c1ccc2c(c1)C1(O)C(C2)SC(=Nc2ccccc2)N1c1ccccc1 (centres undefined) | 75 °C
94 | C#CCCCC1(S(=O)(=O)c2ccc(C)cc2)SC(=O)NC1=O (centres undefined) | 226 °C
95 | O=[N+]([O-])c1ccc2c(c1)OC(CO)CO2 (centres undefined) | 132 to 135 °C
96 | CC12CCC3C(CC=C4CC(O)CCC43C)C1CC=C2I (centres undefined) | 169 to 171 °C
97 | N#Cc1ccc(-c2nc(C(=O)Nc3nccs3)c(-c3ccc(F)cc3)[nH]2)cc1 | > 250 °C
98 | NC(=S)N1c2ccccc2C=Cc2ccccc21 | 192 to 194 °C
99 | CCCCC[C@H]1CC[C@H](c2ccc(-c3nc(N)nc(N)n3)cc2)CC1 | > 250 °C
